{
  "source": "patent US20260327239A1",
  "about": "“COMPOUNDS FOR COVALENT INHIBITION OF SHP2” (Purdue Research Foundation, priority 2023, published 2026)",
  "key": {"SHP2": {"target": "T1, SHP2 (Homo sapiens, UniProt Q06124)", "T1 construct": "4× solution of SHP2 (residues 224-528)", "T1 sequence (Q06124 224-528)": "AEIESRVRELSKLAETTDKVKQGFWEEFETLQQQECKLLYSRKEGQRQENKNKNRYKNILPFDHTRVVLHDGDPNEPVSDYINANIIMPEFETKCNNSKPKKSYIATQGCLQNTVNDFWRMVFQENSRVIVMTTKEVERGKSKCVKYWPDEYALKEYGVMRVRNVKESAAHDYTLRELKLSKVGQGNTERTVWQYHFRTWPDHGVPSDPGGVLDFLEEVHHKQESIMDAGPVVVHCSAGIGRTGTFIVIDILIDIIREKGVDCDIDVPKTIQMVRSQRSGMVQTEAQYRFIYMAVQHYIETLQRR", "assay": "Covalent adduct formation on SHP2 by intact protein LC-MS", "type": "binding", "settings": "10 μM SHP2, 60 minutes", "experimental": "To validate covalent modification of SHP2 by the active compounds, adduct formation on SHP2 was measured by intact protein liquid chromatography-mass spectrometry (LC-MS). With intact protein LC-MS, multiply charged states of the protein species can be deconvoluted to achieve the total mass(es). Compounds were incubated with 10 μM SHP2 for 60 minutes before being quenched with acetonitrile for LC-MS analysis by electrospray ionization (ESI) in positive mode. […] (33), and (42) (FIGS. 3A and 3B).\nTo unfold protein and quench protein-ligand reactivity, 10 μL of treated or untreated 10 μM SHP2 was diluted in 40 μL of 80% (v/v) formic acid initially, followed by 150 μL of LC-MS buffer (50/50 water/acetonitrile with 0.1% formic acid). 20-25 pmol per sample was analyzed by LC/MS (Agilent 1260 Infinity II with a ZORBAX Rapid Resolution High Definition 300 Å Stable Bond C3, 2.1×100 mm, 1.8 μm column) attached to an Agilent 6129 quadrupole mass spectrometer in positive ion mode. The column was held at 45° C. Mobile solution A was 0.1% formic acid in water, and mobile phase B was 0.1% formic acid in acetonitrile. The gradient used was hold at 10% B for 5 min, increase linearly to 80% B for 15 min, and then hold at 80% B for 5 min. The mass data were collected at a range of 600-1500 m/z. Raw data were processed using MestReNova. For all samples, the deconvoluted mass was calculated by taking the m/z range of 730-1100 Da, and deconvoluted mass range from 36500-37200 Da. An abundance threshold of 10% and tolerance of 30 ppm was set for deconvolution. Unreacted SHP2's total deconvoluted mass was 36602±10 Da; for each deconvolution, the highest deconvoluted mass intensity was utilized as the mass pivot point to determine and identify reacted SHP2 adducts. To calculate the percent SHP2 reacted, the relative abundance intensity of reacted SHP2 was divided by the total relative abundance intensities of unreacted and reacted SHP2."}, "LYP": {"target": "T2, LYP (Homo sapiens, UniProt Q9Y2R2)", "T2 sequence (Q9Y2R2 1-807)": "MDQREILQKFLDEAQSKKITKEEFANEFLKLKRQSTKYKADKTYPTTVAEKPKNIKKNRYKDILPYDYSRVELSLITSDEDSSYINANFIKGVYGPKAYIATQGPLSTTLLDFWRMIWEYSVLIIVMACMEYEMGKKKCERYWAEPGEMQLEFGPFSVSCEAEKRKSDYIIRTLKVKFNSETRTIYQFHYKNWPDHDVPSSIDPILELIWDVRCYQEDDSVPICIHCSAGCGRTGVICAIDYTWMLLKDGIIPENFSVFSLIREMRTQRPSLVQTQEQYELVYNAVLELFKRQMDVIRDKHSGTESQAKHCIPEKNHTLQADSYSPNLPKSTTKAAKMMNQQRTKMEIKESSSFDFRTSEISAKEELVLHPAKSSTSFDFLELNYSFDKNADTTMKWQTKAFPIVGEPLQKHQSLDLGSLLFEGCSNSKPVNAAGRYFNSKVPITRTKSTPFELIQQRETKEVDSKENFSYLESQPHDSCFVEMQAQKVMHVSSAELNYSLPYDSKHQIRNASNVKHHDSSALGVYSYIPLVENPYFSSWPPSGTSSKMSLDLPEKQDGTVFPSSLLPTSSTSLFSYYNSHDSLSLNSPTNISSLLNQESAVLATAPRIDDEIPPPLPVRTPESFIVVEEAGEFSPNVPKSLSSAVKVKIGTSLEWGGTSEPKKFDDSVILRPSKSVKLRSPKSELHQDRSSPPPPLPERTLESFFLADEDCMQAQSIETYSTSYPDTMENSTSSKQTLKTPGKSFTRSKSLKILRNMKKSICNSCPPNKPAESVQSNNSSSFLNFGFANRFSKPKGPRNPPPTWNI", "assay": "Time-dependent IC50 determination, LYP (10 min preincubation, pNPP)", "type": "biochemical", "experimental": "During active compound characterization, other common PTPs, including SHP1. PTP1B, and LYP, were counter-screened. Compounds were incubated for 10 minutes with the corresponding PTP (4 μM) before being diluted 50-fold into a solution containing excess substrate para-nitrophenyl phosphate (10 mM) to monitor the remaining activity. […] This was not expected, given their high sequence and structural homology. […] While unexpected, the lower sequence homology provides a rationale for the observed selectivity.\nInhibitors were evaluated for their ability to inhibit the reaction catalyzed by SHP2 using para-nitrophenyl phosphate (pNPP) as a substrate at pH 7 and 25° C. The reaction was started in a clear flat-bottom 96-well plate (Corning Costar Assay Plate #9017) by the addition of 25 μL of 4 μM PTP in DMG buffer to 25 μl of 2× inhibitor (final concentrations=2 μM PTP, 100-0 μM inhibitor). Reactions were incubated for 1 or 10 minutes before transferring 4 μL into 196 μL of 10.1 mM pNPP in DMG buffer (final concentration=40 nM PTP, 10 mM pNPP). These wells were then allowed to react for 10, 45, or 3 minutes for SHP1 and SHP2, LYP, PTP1B respectively before quenching with 50 μL of 5 M NaOH. Plates were then read for absorbance at 405 nm using a CLARIOstar^Plus plate reader (BMG Labetch). […]"}},
  "note": "pIC50: −log10 of the molar value.",
  "data": [
    {"compound": "C=C1C(=O)[C@@]2(C(=O)N3CCN(c4ccc(I)cc4)CC3)CC(=O)C[C@@H]1C2", "note": "[Compound 37]", "values": [
      {"measurement": "Found Ligand Adduct (mass shift)", "setting": "SHP2; intact protein LC-MS", "result": 461, "unit": "Da"},
      {"measurement": "% SHP2 Reacted (overall adduct formation)", "setting": "SHP2; PVSN at 20 μM, compound 37 at 10 μM", "result": 33, "unit": "%"},
      {"measurement": "pIC50", "setting": "LYP; LYP, 10 minutes preincubation, curve not completed (solubility), extrapolated, read-out: 10 Minute IC50", "result": 3.31},
      {"measurement": "Fold-Selective (10 Minutes)", "setting": "LYP; SHP2 over LYP", "result": 31.12}
    ]}
  ]
}
